Assays:
[1] = system: NMA (200 μM) neurotoxicity in chick embryo retina; experiment: NMDA/KA Antagonist Assay: prevention of NMA neurotoxicity in chick embryo retina; format: cell-based; settings: Gallus gallus, 0.5 h, 15-day old chick embryo retina, 30 min at 37° C., criterion: complete prevention of toxicity in all specimens, read-out: concentration providing total protection against toxicity of NMA
Protocol: (§1) A 15-day old chick embryo retina, incubated for 30 min. in a balanced salt solution (BSS) containing 1 mM Glu, developed a full lesion resembling that described in the immature mouse retina following s.c. administration of Glu. Other excitotoxin agonists also produce acute lesions within 30 min., each agent being effective at a concentration proportional to its known excitatory and toxic potencies. The pattern of cellular degeneration is restricted in each case to the ganglion cell, inner plexiform and inner nuclear layers, but within these areas certain agonists induce different patterns of degeneration, the differences being most pronounced between NMA and KA. Two agonists were employed in the present test, each at a concentration established previously to be the lowest concentration required to consistently cause a fully-developed retinal lesion: KA (25 μM) and NMA (200 μM). Mecamylamine was tested at various concentrations for its ability to prevent KA or NMA neurotoxicity. Although partial blocking was sometimes observed for antagonist concentrations below the threshold for complete protection, the criterion used for comparing agents for antagonist potency was the concentration required to completely prevent KA or NMA from exerting any toxic activity in any specimen (n>6) studied at that concentration. […]

[2] = system: KA (25 μM) neurotoxicity in chick embryo retina; experiment: NMDA/KA Antagonist Assay: prevention of KA neurotoxicity in chick embryo retina; format: cell-based; settings: 15-day old chick embryo retina, 30 min at 37° C., tested at various concentrations
Protocol: as §1

[3] = target: PCP receptor (binding of the PCP ligand 3H-TCP); experiment: Receptor Binding Assay: inhibition of 3H-TCP binding in frozen brain sections; settings: frozen brain sections (10 microns), 20 nM 3H-TCP, 45 min at 4° C., Scatchard/Rosenthal analysis
Protocol: Prevention of the neurodegenerative consequences associated with conditions of hypoxia or ischemia may be accomplished with administration of a compound of Formula I. In particular, the compound 3-methylamino-2,2,3-trimethylbicyclo[2.2.1]heptane (mecamylamine) was evaluated in biological assays designed to detect compounds capable of inhibiting hypoxia/ischemia-induced neuronal degeneration. Mecamylamine was evaluated for its ability to inhibit the binding of the PCP ligand tritiated 1-[1-(2-thienyl)cyclohexyl]piperidine [^3 H-TCP].
For receptor binding, frozen brain sections (10 microns) were incubated in […] tris acetate (pH 7.25) containing 0.5 mM magnesium acetate and 20 nM ^3 H-TCP for 45 min. at 4° C. Non-specific binding was assessed with 200 μM PCP. Inhibition of ^3 H-TCP binding was studied by including potential inhibitors in the ^3 H-TCP incubation at concentrations from 10 nM to 1 mM. Dissociation and inhibition constants were calculated by Scatchard/Rosenthal analysis of data obtained by liquid scintillation counting of whole sections.

## CNC1(C)C2CCC(C2)C1(C)C (stereo not drawn) [mecamylamine, 3-(methylamino)-2,2,3-trimethylbicyclo[2.2.1]heptane]
[1]
  EC100: 100 µM
[2]
  blocking of KA toxicity: not observed
[3]
  Ki: 122 µM
